Values quoted from earlier work as cited in US20070293534A1, “Process for the preparation of mivacurium chloride” (FARMABIOS S.P.A., priority 2006, published 2007).

Conditions: for neuromuscolar blocking potencies compared with each other: trans-trans versus cis-trans diastereoisomer

COc1cc2c(cc1OC)[C@@H](Cc1cc(OC)c(OC)c(OC)c1)[N@@+](C)(CCCOC(=O)CC/C=C/CCC(=O)OCCC[N@@+]1(C)CCc3cc(OC)c(OC)cc3[C@H]1Cc1cc(OC)c(OC)c(OC)c1)CC2.[Cl-].[Cl-] (single isomer, unassigned) [cis-cis diastereoisomer]
neuromuscolar blocking potency relative to the other two diastereoisomers (fraction of the potency of the trans-trans and cis-trans diastereoisomers, estimated): approximately one tenth

COc1cc2c(cc1OC)[C@@H](Cc1cc(OC)c(OC)c(OC)c1)[N@@+](C)(CCCOC(=O)CC/C=C/CCC(=O)OCCC[N@+]1(C)CCc3cc(OC)c(OC)cc3[C@H]1Cc1cc(OC)c(OC)c(OC)c1)CC2.[Cl-].[Cl-] [cis-trans]
neuromuscolar blocking potencies compared with each other: not significantly different from each other

COc1cc2c(cc1OC)[C@@H](Cc1cc(OC)c(OC)c(OC)c1)[N@+](C)(CCCOC(=O)CC/C=C/CCC(=O)OCCC[N@+]1(C)CCc3cc(OC)c(OC)cc3[C@H]1Cc1cc(OC)c(OC)c(OC)c1)CC2.[Cl-].[Cl-] [trans-trans]
neuromuscolar blocking potencies compared with each other: not significantly different from each other
